What was measured:
[1] = Plasma clearance in rhesus monkey at 1 mg/kg, iv; assay type: ADME, organism-based, Macaca mulatta; design: dose 1 mg/kg, route intravenous
[2] = Cmax in dog at 10 mg/kg, po; assay type: ADME, organism-based, Canis lupus familiaris; design: dose 10 mg/kg, route oral; settings: in vivo
[3] = tested on: Human immunodeficiency virus 1; assay: Antiviral activity against HIV1 with integrase N155S mutation by single cycle infectivity assay in presence of 10%FBS; assay type: functional
[4] = Inhibition of HIV reverse transcriptase; design: species or system Human immunodeficiency virus
[5] = tested on: Human immunodeficiency virus 1; assay: Antiviral activity against HIV1 3B in human MT4 cells in presence of 50% normal human serum; assay type: functional; settings: Human immunodeficiency virus 1, 3B, MT4; read-out: CIC95
[6] = Volume of distribution in rhesus monkey at 1 mg/kg, iv; settings: in vivo
[7] = Cmax in Sprague-Dawley rat at 100 mg/kg, po using PEG400 as vehicle; assay type: ADME, organism-based; design: dose 100 mg/kg, route oral; settings: in vivo
[8] = AUC in rhesus monkey at 10 mg/kg, po; assay type: ADME, organism-based, Macaca mulatta; design: dose 10 mg/kg, route oral; settings: plasma
[9] = Oral bioavailability in po dosed rhesus monkey; assay type: ADME, organism-based, Macaca mulatta; settings: in vivo
[10] = tested on: Human immunodeficiency virus 1; assay: Antiviral activity against HIV1 3B in human MT4 cells in presence of 10% heat-inactivated fetal bovine serum; settings: Human immunodeficiency virus 1, 3B, read-out: CIC95
[11] = Inhibition of human DNA polymerase alpha
[12] = Cmax in rhesus monkey at 10 mg/kg, po; assay type: ADME, organism-based, Macaca mulatta; design: dose 10 mg/kg, route oral; settings: in vivo
[13] = target: Cytochrome P450 2D6 (Homo sapiens, UniProt P10635); assay: Inhibition of CYP2D6; assay type: ADME
Chain of Cytochrome P450 2D6 (P10635 whole entry): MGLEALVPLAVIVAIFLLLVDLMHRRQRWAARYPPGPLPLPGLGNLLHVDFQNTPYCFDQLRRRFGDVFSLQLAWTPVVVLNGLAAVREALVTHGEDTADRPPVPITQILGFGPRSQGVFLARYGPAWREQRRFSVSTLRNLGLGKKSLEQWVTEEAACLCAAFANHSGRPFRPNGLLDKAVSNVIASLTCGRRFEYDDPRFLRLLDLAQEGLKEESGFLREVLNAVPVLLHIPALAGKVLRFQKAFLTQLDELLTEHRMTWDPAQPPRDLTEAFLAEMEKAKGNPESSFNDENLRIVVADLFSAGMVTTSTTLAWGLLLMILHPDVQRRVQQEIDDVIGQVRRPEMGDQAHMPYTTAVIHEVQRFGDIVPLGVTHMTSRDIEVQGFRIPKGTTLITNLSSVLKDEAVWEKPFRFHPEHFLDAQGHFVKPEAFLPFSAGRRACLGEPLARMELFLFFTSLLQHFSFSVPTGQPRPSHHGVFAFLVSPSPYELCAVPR

[14] = Terminal half life in dog at 10 mg/kg, po; assay type: ADME, organism-based, Canis lupus familiaris; design: dose 10 mg/kg, route oral; settings: in vivo, read-out: beta t1/2 (converted)
[15] = Volume of distribution in Sprague-Dawley rat at 3 mg/kg, iv; assay type: ADME, organism-based; design: dose 3 mg/kg, route intravenous; settings: in vivo
[16] = AUC in Sprague-Dawley rat at 100 mg/kg, po using 1% methyl cellulose as vehicle; assay type: ADME, organism-based; design: dose 100 mg/kg, route oral; settings: in vivo
[17] = AUC in Sprague-Dawley rat at 100 mg/kg, po using PEG400 as vehicle; assay type: ADME, organism-based; design: dose 100 mg/kg, route oral; settings: plasma
[18] = Volume of distribution in dog at 5 mg/kg, iv; assay type: ADME, organism-based, Canis lupus familiaris; design: dose 5 mg/kg, route intravenous; settings: in vivo
[19] = Cmax in Sprague-Dawley rat at 100 mg/kg, po using 1% methyl cellulose as vehicle; assay type: ADME, organism-based; design: dose 100 mg/kg, route oral; settings: in vivo
[20] = target: Voltage-gated inwardly rectifying potassium channel KCNH2 (Homo sapiens, UniProt Q12809); assay: Binding affinity to human ERG
Chain of Voltage-gated inwardly rectifying potassium channel KCNH2 (Q12809 whole entry): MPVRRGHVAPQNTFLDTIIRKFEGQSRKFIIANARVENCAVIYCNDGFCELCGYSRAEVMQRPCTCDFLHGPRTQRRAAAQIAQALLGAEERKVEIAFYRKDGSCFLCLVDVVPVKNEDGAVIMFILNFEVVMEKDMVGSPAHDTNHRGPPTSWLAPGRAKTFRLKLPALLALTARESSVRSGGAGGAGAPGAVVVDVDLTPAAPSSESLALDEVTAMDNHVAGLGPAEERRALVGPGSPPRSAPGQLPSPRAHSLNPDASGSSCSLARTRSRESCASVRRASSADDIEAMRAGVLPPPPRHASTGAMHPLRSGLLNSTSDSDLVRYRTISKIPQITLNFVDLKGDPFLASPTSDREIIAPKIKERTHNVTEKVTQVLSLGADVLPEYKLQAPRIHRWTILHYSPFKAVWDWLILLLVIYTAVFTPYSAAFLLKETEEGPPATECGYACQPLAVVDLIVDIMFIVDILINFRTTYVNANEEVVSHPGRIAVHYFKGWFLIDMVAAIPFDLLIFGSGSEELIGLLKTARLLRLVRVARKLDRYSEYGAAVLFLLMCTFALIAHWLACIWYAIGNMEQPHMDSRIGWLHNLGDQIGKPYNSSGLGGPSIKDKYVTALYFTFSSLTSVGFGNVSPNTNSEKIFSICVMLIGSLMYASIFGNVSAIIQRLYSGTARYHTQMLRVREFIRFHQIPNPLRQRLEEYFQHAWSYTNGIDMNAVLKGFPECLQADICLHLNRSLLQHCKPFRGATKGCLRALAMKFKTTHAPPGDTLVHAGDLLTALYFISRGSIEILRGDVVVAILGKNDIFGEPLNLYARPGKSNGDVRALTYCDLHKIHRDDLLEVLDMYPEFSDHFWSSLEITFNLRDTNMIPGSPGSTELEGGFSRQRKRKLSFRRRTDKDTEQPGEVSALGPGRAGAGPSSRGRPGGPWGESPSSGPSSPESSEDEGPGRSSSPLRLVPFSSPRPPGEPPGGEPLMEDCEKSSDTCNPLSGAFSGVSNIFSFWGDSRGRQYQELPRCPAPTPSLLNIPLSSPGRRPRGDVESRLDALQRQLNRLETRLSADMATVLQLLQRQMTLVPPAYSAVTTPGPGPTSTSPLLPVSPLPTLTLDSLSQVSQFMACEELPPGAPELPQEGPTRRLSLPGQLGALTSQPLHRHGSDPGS

[21] = tested on: Human immunodeficiency virus 1; assay: Antiviral activity against HIV1 with integrase T66I/M154 mutation by single cycle infectivity assay in presence of 10%FBS; assay type: functional
[22] = Terminal half life in dog at 5 mg/kg, iv; assay type: ADME, organism-based, Canis lupus familiaris; design: dose 5 mg/kg, route intravenous; settings: in vivo, read-out: beta t1/2 (converted)
[23] = Terminal half life in po dosed rhesus monkey; assay type: ADME, organism-based, Macaca mulatta; settings: in vivo, read-out: beta t1/2 (converted)
[24] = Inhibition of HCV polymerase; design: species or system Hepacivirus hominis
[25] = Primary phase half life in dog at 5 mg/kg, iv; assay type: ADME, organism-based, Canis lupus familiaris; design: dose 5 mg/kg, route intravenous; settings: in vivo, read-out: alphat1/2 (converted)
[26] = Inhibition of HIV ribonuclease H; design: species or system Human immunodeficiency virus
[27] = target: Cytochrome P450 3A4 (Homo sapiens, UniProt P08684); assay: Inhibition of CYP3A4; assay type: ADME
Chain of Cytochrome P450 3A4 (P08684 whole entry): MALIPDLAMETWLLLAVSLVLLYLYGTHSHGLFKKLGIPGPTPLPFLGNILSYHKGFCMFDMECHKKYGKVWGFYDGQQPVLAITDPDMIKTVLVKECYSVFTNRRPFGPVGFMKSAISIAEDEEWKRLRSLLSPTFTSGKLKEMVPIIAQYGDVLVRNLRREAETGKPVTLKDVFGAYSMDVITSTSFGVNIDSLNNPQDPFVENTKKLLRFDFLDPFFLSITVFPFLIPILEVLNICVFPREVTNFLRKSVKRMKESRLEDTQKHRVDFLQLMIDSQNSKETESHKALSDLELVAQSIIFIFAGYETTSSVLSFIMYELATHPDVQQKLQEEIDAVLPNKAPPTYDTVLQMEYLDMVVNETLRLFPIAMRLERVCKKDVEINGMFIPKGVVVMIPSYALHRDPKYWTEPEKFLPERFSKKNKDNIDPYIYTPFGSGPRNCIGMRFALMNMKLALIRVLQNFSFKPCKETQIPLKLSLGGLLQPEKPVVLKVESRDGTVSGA

[28] = Plasma clearance in Sprague-Dawley rat at 3 mg/kg, iv; assay type: ADME, organism-based; design: dose 3 mg/kg, route intravenous
[29] = Terminal half life in rhesus monkey at 1 mg/kg, iv; assay type: ADME, organism-based, Macaca mulatta; design: dose 1 mg/kg, route intravenous; settings: in vivo, read-out: beta t1/2 (converted)
[30] = target: Cytochrome P450 2C9 (Homo sapiens, UniProt P11712); assay: Inhibition of CYP2C9; assay type: ADME
Chain of Cytochrome P450 2C9 (P11712 whole entry): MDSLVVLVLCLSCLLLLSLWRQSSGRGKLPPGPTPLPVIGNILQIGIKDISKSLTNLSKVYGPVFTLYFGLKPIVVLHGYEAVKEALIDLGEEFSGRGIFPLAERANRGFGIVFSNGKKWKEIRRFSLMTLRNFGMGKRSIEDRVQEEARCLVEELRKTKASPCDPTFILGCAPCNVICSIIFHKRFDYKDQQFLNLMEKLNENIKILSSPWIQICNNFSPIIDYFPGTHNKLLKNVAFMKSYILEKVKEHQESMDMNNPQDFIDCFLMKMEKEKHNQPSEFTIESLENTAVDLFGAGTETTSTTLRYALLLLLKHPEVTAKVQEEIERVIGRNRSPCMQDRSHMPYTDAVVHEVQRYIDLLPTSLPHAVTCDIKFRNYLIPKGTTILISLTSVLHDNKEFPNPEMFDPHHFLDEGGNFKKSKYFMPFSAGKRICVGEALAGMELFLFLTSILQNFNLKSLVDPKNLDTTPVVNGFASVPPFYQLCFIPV

[31] = tested on: Human immunodeficiency virus 1; assay: Antiviral activity against HIV1 with integrase T66I/L74M/V151I mutation by single cycle infectivity assay in presence of 10%FBS; assay type: functional
[32] = AUC in dog at 10 mg/kg, po; assay type: ADME, organism-based, Canis lupus familiaris; design: dose 10 mg/kg, route oral; settings: plasma
[33] = Plasma clearance in dog at 5 mg/kg, iv; assay type: ADME, organism-based, Canis lupus familiaris; design: dose 5 mg/kg, route intravenous
[34] = tested on: Human immunodeficiency virus 1; assay: Antiviral activity against HIV1 with integrase T66I/S153Y mutation by single cycle infectivity assay in presence of 10%FBS; assay type: functional
[35] = Primary phase half life in rhesus monkey at 1 mg/kg, iv; assay type: ADME, organism-based, Macaca mulatta; design: dose 1 mg/kg, route intravenous; settings: in vivo, read-out: alphat1/2 (converted)
[36] = target: DNA polymerase beta (Homo sapiens, UniProt P06746); assay: Inhibition of human DNA polymerase beta
[37] = Primary phase half life in Sprague-Dawley rat at 3 mg/kg, iv; assay type: ADME, organism-based; design: dose 3 mg/kg, route intravenous; settings: in vivo, read-out: alphat1/2 (converted)
[38] = Cmax in Sprague-Dawley rat at 3 mg/kg, po; assay type: ADME, organism-based; design: dose 3 mg/kg, route oral; settings: in vivo
[39] = target: Human immunodeficiency virus type 1 integrase (Human immunodeficiency virus 1, UniProt Q7ZJM1); assay: Inhibition of HIV1 recombinant integrase strand transfer activity
Chain of Human immunodeficiency virus type 1 integrase (Q7ZJM1 whole entry): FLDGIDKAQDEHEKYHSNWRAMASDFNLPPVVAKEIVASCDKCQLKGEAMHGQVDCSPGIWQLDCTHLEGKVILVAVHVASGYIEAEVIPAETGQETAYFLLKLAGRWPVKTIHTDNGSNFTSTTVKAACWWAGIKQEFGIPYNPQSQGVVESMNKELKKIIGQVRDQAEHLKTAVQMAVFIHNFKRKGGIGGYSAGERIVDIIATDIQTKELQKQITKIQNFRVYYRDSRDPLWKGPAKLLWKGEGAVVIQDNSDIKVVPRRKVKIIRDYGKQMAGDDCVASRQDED

[40] = Terminal half life in Sprague-Dawley rat at 3 mg/kg, iv; assay type: ADME, organism-based; design: dose 3 mg/kg, route intravenous; settings: in vivo, read-out: beta t1/2 (converted)
[41] = tested on: Human immunodeficiency virus 1; assay: Antiviral activity against HIV1 with integrase T125K/F121Y mutation by single cycle infectivity assay in presence of 10%FBS; assay type: functional
[42] = Terminal half life in po dosed Sprague-Dawley rat; assay type: ADME, organism-based; settings: in vivo
[43] = AUC in Sprague-Dawley rat at 3 mg/kg, po; assay type: ADME, organism-based; design: dose 3 mg/kg, route oral; settings: plasma
[44] = target: T1, Cytochrome P450 1A2 (Homo sapiens, UniProt P05177); assay: Inhibition of CYP1A2; assay type: ADME
T1 sequence (P05177 whole entry): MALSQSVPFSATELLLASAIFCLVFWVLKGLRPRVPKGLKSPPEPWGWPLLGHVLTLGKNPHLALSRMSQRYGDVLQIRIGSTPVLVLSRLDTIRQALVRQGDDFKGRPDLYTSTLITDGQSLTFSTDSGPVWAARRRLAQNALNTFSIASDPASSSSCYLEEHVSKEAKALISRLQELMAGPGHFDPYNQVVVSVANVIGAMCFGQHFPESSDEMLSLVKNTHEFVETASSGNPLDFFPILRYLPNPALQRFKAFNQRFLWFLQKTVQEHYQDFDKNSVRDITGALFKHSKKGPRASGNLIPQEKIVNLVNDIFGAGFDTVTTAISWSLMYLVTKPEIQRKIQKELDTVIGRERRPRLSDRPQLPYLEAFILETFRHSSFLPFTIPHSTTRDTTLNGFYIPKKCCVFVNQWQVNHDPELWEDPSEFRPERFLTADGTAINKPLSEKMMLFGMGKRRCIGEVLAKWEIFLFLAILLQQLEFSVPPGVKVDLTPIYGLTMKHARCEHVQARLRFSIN

[45] = Inhibition of human DNA polymerase gamma
[46] = Volume of distribution in dog at 1 mg/kg, iv; assay type: ADME, organism-based, Canis lupus familiaris; design: dose 1 mg/kg, route intravenous; settings: in vivo
[47] = AUC in dog at 2 mg/kg, po; assay type: ADME, organism-based, Canis lupus familiaris; design: dose 2 mg/kg, route oral; settings: plasma
[48] = Terminal half life in dog at 1 mg/kg, iv; assay type: ADME, organism-based, Canis lupus familiaris; design: dose 1 mg/kg, route intravenous; settings: in vivo, read-out: beta t1/2 (converted)
[49] = Oral bioavailability in po dosed dog; assay type: ADME, organism-based, Canis lupus familiaris; settings: in vivo
[50] = Plasma clearance in dog at 1 mg/kg, iv; assay type: ADME, organism-based, Canis lupus familiaris; design: dose 1 mg/kg, route intravenous
[51] = Oral bioavailability in po dosed Sprague-Dawley rat; assay type: ADME, organism-based; settings: in vivo
[52] = Cmax in dog at 2 mg/kg, po; assay type: ADME, organism-based, Canis lupus familiaris; design: dose 2 mg/kg, route oral; settings: in vivo
[53] = Cmax in po dosed rhesus monkey; assay type: ADME, organism-based, Macaca mulatta; design: route oral; settings: in vivo

## CN(C)C(=O)C(=O)NC(C)(C)c1nc(C(=O)NCc2ccc(F)cc2)c(O)c(=O)n1C
[1]
  clearance: 14 mL/min/kg
[2]
  Cmax: 11 µM
[3]
  Activity: 40%
[4]
  IC50: > 50 µM
[5]
  IC95: 0.074 µM
[6]
  Vd: 2.9 L/kg
[7]
  Cmax: 31 µM
[8]
  AUC: 5.2 µM·h
[9]
  bioavailability: 24%
[10]
  IC95: 0.045 µM
[11]
  IC50: > 50 µM
[12]
  Cmax: 4.5 µM
[13]
  IC50: > 50 µM
[14]
  half-life: 4.9 h
[15]
  Vd: 1.3 L/kg
[16]
  AUC: 23 µM·h
[17]
  AUC: 49 µM·h
[18]
  Vd: 1.1 L/kg
[19]
  Cmax: 12 µM
[20]
  IC50: > 50 µM
[21]
  Activity: 5%
[22]
  half-life: 16 h
[23]
  half-life: 1.9 h
[24]
  IC50: > 50 µM
[25]
  half-life: 1.2 h
[26]
  IC50: > 50 µM
[27]
  IC50: > 50 µM
[28]
  clearance: 20 mL/min/kg
[29]
  half-life: 3 h
[30]
  IC50: > 50 µM
[31]
  Activity: 35%
[32]
  AUC: 23 µM·h
[33]
  clearance: 11 mL/min/kg
[34]
  Activity: 8%
[35]
  half-life: 0.9 h
[36]
  IC50: > 50 µM
[37]
  half-life: 0.4 h
[38]
  Cmax: 0.6 µM
[39]
  IC50: 0.01 µM
[40]
  half-life: 6 h
[41]
  Activity: 19%
[42]
  half-life: 0.9 h
[43]
  AUC: 0.7 µM·h
[44]
  IC50: > 50 µM
[45]
  IC50: > 50 µM

## Cc1nnc(C(=O)NC(C)(C)c2nc(C(=O)NCc3ccc(F)cc3)c(O)c(=O)n2C)o1
[1]
  clearance: 18 mL/min/kg
[2]
  Cmax: 8 µM
[3]
  Activity: 10%
[4]
  IC50: > 50 µM
[5]
  IC95: 0.031 µM
[46]
  Vd: 0.9 L/kg
[6]
  Vd: 1.2 L/kg
[8]
  AUC: 1.8 µM·h
[9]
  bioavailability: 8%
[10]
  IC95: 0.019 µM
[11]
  IC50: > 50 µM
[13]
  IC50: > 50 µM
[47]
  AUC: 7 µM·h
[48]
  half-life: 11 h
[15]
  Vd: 2 L/kg
[49]
  bioavailability: 45%
[21]
  Activity: 1%
[23]
  half-life: 7 h
[24]
  IC50: > 50 µM
[26]
  IC50: > 50 µM
[27]
  IC50: > 50 µM
[28]
  clearance: 39 mL/min/kg
[29]
  half-life: 4 h
[50]
  clearance: 6 mL/min/kg
[30]
  IC50: > 50 µM
[31]
  Activity: 6%
[32]
  AUC: 21 µM·h
[51]
  bioavailability: 37%
[34]
  Activity: 1%
[52]
  Cmax: 3 µM
[36]
  IC50: > 50 µM
[38]
  Cmax: 1.2 µM
[40]
  half-life: 2 h
[41]
  Activity: 8%
[53]
  Cmax: 0.3 µM
[43]
  AUC: 1 µM·h
[44]
  IC50: > 50 µM
[45]
  IC50: > 50 µM

— ChEMBL document CHEMBL1140081 (J Med Chem, 2008)
